Source: the supplement of paper PMC11208160

Assay: recombinant barcode read abundance after kanamycin selection (control-corrected) (log10(CPM+1)); higher = more efficient recombination; sequences stand for … in AGTGCAGAGAAAATCGGCCAGTTTTCTCTGCCTGCAGTCCGCATGCCGT…AGATTTATGCAGCGGACTGCCTTTCTCCCAAAGTGATAAACCGGACAGTATCATGGACCGGTTTTCCCGGTAATCCGTATTTGCAAGGTTGGTTTCACT; site = the 11-nt target
In short: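 Values are log10(CPM+1) from a pooled E. coli screen of targets paired with IS621 bridge RNA target-binding loops. Recombination efficiency here means counts per million of recombinant-junction barcodes, averaged and control-corrected. Plates were chloramphenicol/ampicillin LB agar for the control and chloramphenicol/ampicillin/kanamycin with 0.1 mM IPTG, two replicates each.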
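Note: IS621 recombinase and bridge RNA in Escherichia coli cells.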

Q: Which “recombinant barcode read abundance (log10)” value does the source give for “GATGGACCTTGGGTTCTAACCTGTTGCTA (site ATGTCTGCTAG)” here?
A: The value was 0.0118.

Q: Which “recombinant barcode read abundance (log10)” value does the source give for “GATGGACCTTGGGTTCTAACCTGTTGCTA (site GATGGACCTTA)” here?
A: Its value is 2.39.

Q: For “GATGGCCCTTGGGTTCTAACCTGTTGCCT (site GATGGCCCTAG)”, which “recombinant barcode read abundance (log10)” value is on record?
A: Its value is 1.23.

Q: For “GATGGCCCTTGGGTTCTAACCTGTTGCCT (site GCTGGCCCTAG)”, which “recombinant barcode read abundance (log10)” value is on record?
A: The value was 0.103.

Q: Which “recombinant barcode read abundance (log10)” value does the source give for “GATGGCCCTTGGGTTCTAACCTGTTGCCT (site GGTGGCCCTAG)” here?
A: Its value is 0.113.

Q: Which “recombinant barcode read abundance (log10)” value does the source give for “GATGGCCCTTGGGTTCTAACCTGTTGCCT (site GTTGGCCCTAG)” here?
A: The value was 0.127.

Q: For “GATGGGCCTTGGGTTCTAACCTGTTGCGT (site GATGGGCCTAC)”, which “recombinant barcode read abundance (log10)” value is on record?
A: The value was 2.54.

Q: Which “recombinant barcode read abundance (log10)” value does the source give for “GATGGGCCTTGGGTTCTAACCTGTTGCGT (site GCTGGGCCTTC)” here?
A: Its value is 0.246.

Q: With “GATGTACCTTGGGTTCTAACCTGTTGCCT (site AATGTACCTAG)” as the sequence, how does the “recombinant barcode read abundance (log10)” value read?
A: The value was 0.984.

Q: For “GATGTACCTTGGGTTCTAACCTGTTGCCT (site CATGTACCTAG)”, which “recombinant barcode read abundance (log10)” value is on record?
A: Its value is 0.43.

Q: For “GATGTACCTTGGGTTCTAACCTGTTGCCT (site GATGTACCTAG)”, which “recombinant barcode read abundance (log10)” value is on record?
A: The value was 1.7.

Q: For “GATGTACCTTGGGTTCTAACCTGTTGCCT (site TATGTACCTAG)”, which “recombinant barcode read abundance (log10)” value is on record?
A: The value was 1.06.

Q: With “GATGTGACTTGGGTTCTAACCTGTTGCCT (site GATGCGACTCG)” as the sequence, how does the “recombinant barcode read abundance (log10)” value read?
A: Its value is 0.182.

Q: With “GATGTGACTTGGGTTCTAACCTGTTGCCT (site GATGTGACTAG)” as the sequence, how does the “recombinant barcode read abundance (log10)” value read?
A: Its value is 2.3.

Q: For “GATTAGACTTGGGTTCTAACCTGTTGCCT (site AATTAGACTAG)”, which “recombinant barcode read abundance (log10)” value is on record?
A: Its value is 0.308.

Q: With “GATTAGACTTGGGTTCTAACCTGTTGCCT (site CATTAGACTAG)” as the sequence, how does the “recombinant barcode read abundance (log10)” value read?
A: Its value is 0.0591.

Q: With “GATTAGACTTGGGTTCTAACCTGTTGCCT (site GATTAGACTAG)” as the sequence, how does the “recombinant barcode read abundance (log10)” value read?
A: The value was 1.09.

Q: Which “recombinant barcode read abundance (log10)” value does the source give for “GATTAGACTTGGGTTCTAACCTGTTGCCT (site TATTAGACTAG)” here?
A: The value was 0.331.

Q: With “GATTCACCTTGGGTTCTAACCTGTTGCCT (site AATTCACCTAG)” as the sequence, how does the “recombinant barcode read abundance (log10)” value read?
A: The value was 0.543.

Q: With “GATTCACCTTGGGTTCTAACCTGTTGCCT (site CATTCACCTAG)” as the sequence, how does the “recombinant barcode read abundance (log10)” value read?
A: Its value is 0.0425.

Q: Which “recombinant barcode read abundance (log10)” value does the source give for “GATTCACCTTGGGTTCTAACCTGTTGCCT (site GATTCACCTAG)” here?
A: The value was 0.739.

Q: For “GATTCACCTTGGGTTCTAACCTGTTGCCT (site TATTCACCTAG)”, which “recombinant barcode read abundance (log10)” value is on record?
A: Its value is 0.274.

Q: With “GATTTCTCTTGGGTTCTAACCTGTTGCCT (site AATTTCTCTAG)” as the sequence, how does the “recombinant barcode read abundance (log10)” value read?
A: Its value is 0.104.

Q: Which “recombinant barcode read abundance (log10)” value does the source give for “GATTTCTCTTGGGTTCTAACCTGTTGCCT (site CATTTCTCTAG)” here?
A: Its value is 0.0742.

Q: For “GATTTCTCTTGGGTTCTAACCTGTTGCCT (site GATTTCTCTAG)”, which “recombinant barcode read abundance (log10)” value is on record?
A: Its value is 0.228.

Q: With “GATTTCTCTTGGGTTCTAACCTGTTGCCT (site TATTTCTCTAG)” as the sequence, how does the “recombinant barcode read abundance (log10)” value read?
A: Its value is 0.124.

Q: With “GCAAGATCTTGGGTTCTAACCTGTTGCCT (site GCAAGATCTAG)” as the sequence, how does the “recombinant barcode read abundance (log10)” value read?
A: The value was 1.36.

Q: With “GCAAGATCTTGGGTTCTAACCTGTTGCCT (site GCAGGGTCTAG)” as the sequence, how does the “recombinant barcode read abundance (log10)” value read?
A: The value was 0.0113.

Q: Which “recombinant barcode read abundance (log10)” value does the source give for “GCAATGACTTGGGTTCTAACCTGTTGCCT (site GAAATGACTAG)” here?
A: The value was 0.

Q: For “GCAATGACTTGGGTTCTAACCTGTTGCCT (site GCAATGACTAG)”, which “recombinant barcode read abundance (log10)” value is on record?
A: The value was 1.88.

Q: For “GCAATGACTTGGGTTCTAACCTGTTGCCT (site GGAATGACTAG)”, which “recombinant barcode read abundance (log10)” value is on record?
A: The value was 0.105.

Q: With “GCAATGACTTGGGTTCTAACCTGTTGCCT (site GTAATGACTAG)” as the sequence, how does the “recombinant barcode read abundance (log10)” value read?
A: Its value is 0.292.

Q: For “GCAATGTCTTGGGTTCTAACCTGTTGCCT (site GAAATGTCTAG)”, which “recombinant barcode read abundance (log10)” value is on record?
A: Its value is 0.104.

Q: Which “recombinant barcode read abundance (log10)” value does the source give for “GCAATGTCTTGGGTTCTAACCTGTTGCCT (site GCAATGTCTAG)” here?
A: The value was 1.42.

Q: For “GCAATGTCTTGGGTTCTAACCTGTTGCCT (site GGAATGTCTAG)”, which “recombinant barcode read abundance (log10)” value is on record?
A: Its value is 0.239.

Q: Which “recombinant barcode read abundance (log10)” value does the source give for “GCAATGTCTTGGGTTCTAACCTGTTGCCT (site GTAATGTCTAG)” here?
A: Its value is 0.443.
